Key:
[1] = tested on: human tripronuclear (3PN) zygotes; assay: Live imaging of spindle assembly and chromosome segregation in human 3PN zygotes injected with KIFC1; type: cell-based; conditions: for multipolar / bipolar spindle assembly: human 3PN zygotes, FIG. 9, B to D
Description: Spindles in human fertilized eggs (zygotes) have also been reported to often be multipolar (6, 7, 122). […] The inventors thus tested if the introduction of exogenous KIFC1 increased the fidelity of spindle assembly and chromosome segregation in human zygotes, by using human tripronuclear (3PN) zygotes. Similar to the zygotes in (6, 7, 122), these zygotes frequently assembled multipolar spindles. […] Furthermore, introduction of mClover3-KIFC1 protein increased the frequency of zygotes with aligned chromosomes at anaphase onset from 20% to 57% (FIG. 9E), and the frequency of zygotes without lagging chromosomes during anaphase from 40% to 71% (FIG. 9F). Thus, introducing exogenous KIFC1 increased the efficiency of bipolar spindle assembly and reduced the risk of aneuploidy in human zygotes.
The use of human 3PN zygotes in this study was approved by the Ärztekammer Niedersachsen under the reference Bo/46/2020. Zygotes were collected from patients who underwent assisted reproduction treatment at Kinderwunschzentrum Göttingen and Fertility Center Berlin. All patients gave informed consent for their 3PN zygotes to be used in this study. For zygotes collected at Kinderwunschzentrum Göttingen, zygotes were cultured in G-1 PLUS medium (Vitrolife) under paraffin oil at 37° C. and 5% CO2. For zygotes collected at Fertility Center Berlin, zygotes were vitrified with Cryolock (FUJIFILM Irvine Scientific) using Vit Kit-Freeze (FUJIFILM Irvine Scientific). To maximize the survival and developmental rate of vitrified-thawed zygotes, zygotes were thawed in 1 ml of prewarmed G-MOPS PLUS (Vitrolife) containing 1 M D-(+)-trehalose (Sigma-Aldrich) at 37° C. for 1 min. Zygotes were then transferred to 300 μl of G-MOPS PLUS containing 0.5 M D-(+)-trehalose at room temperature for 3 min, 300 μl of G-MOPS PLUS containing 0.25 M D-(+)-trehalose at room temperature for 5 min, and 300 μl of G-MOPS PLUS at room temperature for 2 min. Recovered zygotes were cultured in G1-PLUS supplemented with 10% FBS under paraffin oil at 37° C. and 5% CO2. Staining and microinjection of human zygotes were performed as described above for human oocytes.

[2] = tested on: KIFC1/HSET-depleted aMTOC-free mouse oocytes; assay: Rescue of spindle polarity in KIFC1/HSET-depleted aMTOC-free mouse oocytes (human oocyte mimics); type: cell-based
Description: This domain, together with the conserved, microtubule-binding motor domain, allows KIFC1/HSET to organize microtubules via crosslinking and/or sliding (86). To investigate the requirement of different domains in KIFC1/HSET, the inventors expressed a series of truncation mutants in aMTOC-free mouse oocytes (FIG. 7K). […] To examine whether the motor activity is dispensable for the function of KIFC1/HSET in aMTOC-free mouse oocytes, the inventors depleted endogenous KIFC1/HSET by follicle RNAi and restored expression with wild-type HSET or with HSET(N593K), which crosslinks microtubules but cannot slide (87). […] Together, the inventors infer that the appropriate level of KIFC1/HSET's crosslinking and sliding activities are required for proper bipolar spindle assembly in the absence of aMTOCs.
Mouse follicles were microinjected with 3.5 pl of siRNAs at a needle concentration of 2 μM as previously described (11). For rescue experiments, in vitro grown oocytes were microinjected with 3.5 pl of mRNAs. mClover3-HSET mRNA was microinjected at a needle concentration of 275 ng/μl, mClover3-HSET(N593K) mRNA at 275 ng/μl, mClover3-NUMA(S1955D) mRNA at 400 ng/μl, mClover3-NUMA(S1955A) mRNA at 400 ng/μl, mClover3-NUMA(SpM-4A) mRNA at 400 ng/μl, mClover3-NUMA(ΔMTBD1) mRNA at 400 ng/μl and mClover3-NUMA(ΔMTBD2) mRNA at 400 ng/μl. Oocytes were allowed to express the mRNAs for 3-4 h before release.
To obtain mouse MI spindles, oocytes were incubated at 37° C. for around 7 h after released into dbcAMP-free medium. To obtain porcine and bovine MI spindles, oocytes were incubated at 39° C./5% CO2 for around 11 and 12 h, respectively, after released into RO-3306-free medium. To obtain human MI spindles, oocytes were incubated at 37° C. for around 14 and 15 h after NEBD. None of the oocytes used for immunofluorescence analyses was subjected to live imaging before fixation.
Time-lapse movies of live mouse, bovine and porcine oocytes, and fixed human and mouse spindles were analyzed in 3D using Imaris (Bitplane). To determine the stages of meiosis and to score for spindle instability, the timing of meiotic progression was quantified relative to the timing of NEBD. NEBD was defined as the time point when the sharp boundary between the nucleus and cytoplasm disappeared in the differential interference contrast image (for mouse oocytes) or when the nucleus started collapsing in the H2B channel (for bovine and porcine oocytes). Spindle poles were defined as regions of MAP4 or MAP4-MTBD or α-tubulin intensity that prominently protruded from the main microtubule mass. In FIG. 1D, oocytes with bipolar spindle, in which ends of all microtubules converged at the poles, were scored as having focused poles. […] For mouse oocytes, unfocused poles were further classified into mildly unfocused poles (with partially separated microtubule ends) and severely unfocused poles (with fully separated microtubule ends). In FIG. 4D, bovine and porcine oocytes, in which the spindle maintained a barrel-shaped bipolar morphology and a detectable spindle axis, were scored as having stable spindle poles. Oocytes, in which the spindle lost their initial bipolarity and underwent dynamic remodeling of the pole(s) were scored as having unstable spindle poles. […] Oocytes, in which the spindle had more than two poles, were scored as having multipolar spindle. In FIG. 1H, mouse oocytes, in which the spindle had two well-defined poles, were scored as having bipolar spindle. Mouse oocytes, in which the spindle had two poorly defined poles, were scored as having apolar/round spindle. Mouse oocytes, in which the spindle had more than two poles, were scored as having multipolar spindle. […] Mouse oocytes, in which the spindle lost its barrel shape but contains several weakly associated microtubule bundles, were scored as having disorganized spindle.

KIFC1/HSET: Recombinant mClover3-tagged human kinesin-14 KIFC1/HSET protein (SEQ ID NO: 1), expressed in 293 cells, microinjected into human oocytes and zygotes
frequency of zygotes with aligned chromosomes at anaphase onset ([1]; KIFC1-injected human 3PN zygotes, non-injected 20%, FIG. 9E): 57% | frequency of zygotes without lagging chromosomes during anaphase ([1]; KIFC1-injected human 3PN zygotes, non-injected 40%, FIG. 9F): 71% | multipolar / bipolar spindle assembly [1]: significantly reduces multipolar spindle assembly and/or promoted bipolar spindle assembly | multipolar / bipolar spindle assembly ([1]; listed as mClover3-KIFC1): significantly reduced multipolar spindle assembly and promoted bipolar spindle assembly | fold higher probability of having a bipolar spindle vs mimics without introduced KIFC1/HSET ([2]; FIG. 3H (left bar)): 3.2 fold | difference in percentage of bipolar spindles ([2]; from around 30% to 96%): 66% | bipolar spindles ([2]; re-introduction of KIFC1/HSET (rescue experiment) in human oocyte mimics, without around 30%, FIG. 3H): around 96%
